According to patent US8853208B2, “Amino alcohol-substituted arylthienopyrimidinones, process for their preparation and their use as medicaments” (Sanofi, priority 2006, dated 2014):

Biological target: T1, human MCH receptor (Homo sapiens, UniProt Q99705)
T1 construct: expressed in transfected cells
Experiment: Functional IC50 of MCH1R antagonists: cellular calcium flux (FLIPR) after MCH in recombinant HEK293 cells
Type: cell-based
Details: calcium flux after addition of agonist (MCH), recombinant HEK293 cell line expressing the human MCH receptor
Excerpt: Influence on the MCH receptor in vitro; determination of functional IC50 values of MCH1R antagonists
Cloning of the cDNA for the human MCH receptor, preparation of a recombinant HEK293 cell line which expresses the human MCH receptor, and functional measurements with the recombinant cell line took place in analogy to the description by Audinot et al. (J. Biol. Chem. 276, 13554-13562, 2001). A difference from the reference was, however, the use of the plasmid pEAK8 from EDGE Biosystems (USA) for the construction of the expression vector. The host used for the transfection was a transformed HEK cell line named “PEAK Stable Cells” (likewise from EDGE Biosystems). Functional measurements of the cellular calcium flux after addition of agonist (MCH) in the presence of ligand of the invention took place with the aid of the FLIPR apparatus from Molecular Devices (USA), using protocols of the apparatus manufacturer. The compounds of the invention show a significant inhibition (>30%) of the signal induced by the agonist at a concentration of 100 μM, preferably at 10 μM, particularly preferably at 1 μM, very particularly preferably at 100 nM and even more particularly preferably at 10 nM. Besides the functional activity it is also possible to determine the affinity for the MCH1R according to Audinot et al. (Br. J. Pharmacol. 2001, 133, 371-378).

T1 sequence (Q99705 whole entry): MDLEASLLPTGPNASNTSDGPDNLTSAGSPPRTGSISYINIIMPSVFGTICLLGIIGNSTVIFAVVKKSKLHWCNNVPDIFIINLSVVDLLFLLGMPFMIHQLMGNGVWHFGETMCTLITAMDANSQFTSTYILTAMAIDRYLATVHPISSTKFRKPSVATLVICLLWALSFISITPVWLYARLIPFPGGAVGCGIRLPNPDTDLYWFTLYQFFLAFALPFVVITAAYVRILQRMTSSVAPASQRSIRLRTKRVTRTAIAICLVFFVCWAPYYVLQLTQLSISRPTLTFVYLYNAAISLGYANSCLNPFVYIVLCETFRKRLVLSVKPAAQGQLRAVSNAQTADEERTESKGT

Compound	IC50 [nM]
CN1[C@@H]2CC[C@H]1C[C@@H](Oc1ccc(-n3cnc4cc(CCC5CC5)sc4c3=O)cc1)C2 [Example 7]	940
CN1[C@@H]2CC[C@H]1C[C@@H](Oc1ccc(-n3cnc4cc(CCC5(O)CCCC5)sc4c3=O)cc1)C2 [Example 11, 6-[2-(1-Hydroxycyclopentyl)ethyl]-3-[4-((1R,3R,5S)-8-methyl-8-azabicyclo[3.2.1]oct-3-yloxy)phenyl]-3H-thieno[3,2-d]pyrimidin-4-one]	1290
CCC(C)(O)CCc1cc2ncn(-c3ccc(O[C@H]4C[C@H]5CC[C@@H](C4)N5C)c(Cl)c3)c(=O)c2s1 (some centres unmarked) [Example 20]	1030
COCCCc1cc2ncn(-c3ccc(O[C@H]4C[C@H]5CC[C@@H](C4)N5C)c(C)c3)c(=O)c2s1 [Example 22]	400
COCCCc1cc2ncn(-c3ccc(O[C@H]4C[C@H]5CC[C@@H](C4)N5C)c(Cl)c3)c(=O)c2s1 [Example 23]	530
CCC(O)CCc1cc2ncn(-c3ccc(O[C@H]4C[C@H]5CC[C@@H](C4)N5C)c(C)c3)c(=O)c2s1 (some centres unmarked) [Example 27]	140
COc1cc(-n2cnc3cc(C#CC4CC4)sc3c2=O)ccc1OCCN1CCCC1 [Example 42, 6-Cyclopropylethynyl-3-[3-methoxy-4-(2-pyrrolidin-1-ylethoxy)phenyl]-3H-thieno[3,2-d]-pyrimidin-4-one]	110
CC(O)C#Cc1cc2ncn(-c3ccc(O[C@H]4C[C@H]5CC[C@@H](C4)N5C)cc3)c(=O)c2s1 (some centres unmarked) [Example 50]	240
COC(C)(C)C#Cc1cc2ncn(-c3ccc(O[C@H]4C[C@H]5CC[C@@H](C4)N5C)cc3)c(=O)c2s1 [Example 56]	840
Cc1cc(-n2cnc3cc(C#CC(C)O)sc3c2=O)ccc1O[C@H]1C[C@H]2CC[C@@H](C1)N2C (some centres unmarked) [Example 57]	120
COc1cc(-n2cnc3cc(C#CC(C)O)sc3c2=O)ccc1O[C@H]1C[C@H]2CC[C@@H](C1)N2C (some centres unmarked) [Example 58]	340
CN1[C@@H]2CC[C@H]1C[C@@H](Oc1ccc(-n3cnc4cc(C#CC5CC5)sc4c3=O)cc1)C2 [Example 62]	100
CS(=O)(=O)CCN1[C@@H]2CC[C@H]1C[C@@H](Oc1ccc(-n3cnc4cc(C#CC5CC5)sc4c3=O)cc1)C2 [Example 63]	560
O=c1c2sc(C#CC3CC3)cc2ncn1-c1ccc(OCCN2CCCC2)c(F)c1 [Example 69]	200
CN1[C@@H]2CC[C@H]1CC(Oc1ccc(-n3cnc4cc(N5C[C@H]6CCCN6C5=O)sc4c3=O)cc1)C2 (some centres unmarked) [Example 77]	9650
CC(C)N(C)C(=O)c1cc2ncn(-c3ccc(O[C@H]4C[C@H]5CC[C@@H](C4)N5C)cc3)c(=O)c2s1 [Example 82]	6880
CN1[C@@H]2CC[C@H]1C[C@@H](Oc1ccc(-n3cnc4cc(C(=O)N5CCCCC5)sc4c3=O)cc1)C2 [Example 84]	13000
CN(C)CCOc1ccc(-n2cnc3cc(COCC4CCC4)sc3c2=O)cc1 [Example 93, 6-Cyclobutylmethoxymethyl-3-[4 (2-dimethylaminoethoxy)phenyl]-3H-thieno[3,2-d]pyrimidin-4-one]	930
CCCCC(=O)c1cc2ncn(-c3ccc(O[C@H]4C[C@H]5CC[C@@H](C4)N5C)cc3)c(=O)c2s1 [Example 114]	1860
CN1[C@@H]2CC[C@H]1C[C@@H](Oc1ccc(-n3cnc4cc(C(O)C5CCCC5)sc4c3=O)cc1)C2 (stereo partly drawn) [Example 121, 6-(Cyclopentylhydroxymethyl)-3-[4-((1S,3R,5R)-8-methyl-8-azabicyclo[3.2.1]oct-3-yloxy)phenyl]-3H-thieno[3,2-d]pyrimidin-4-one]	750
CCCCC(O)c1cc2ncn(-c3ccc(O[C@H]4C[C@H]5CC[C@@H](C4)N5C)cc3)c(=O)c2s1 (some centres unmarked) [Example 127]	1000
CN1[C@@H]2CC[C@H]1C[C@@H](Oc1ccc(-n3cnc4cc(C(O)CC(C)(C)C)sc4c3=O)cc1)C2 (some centres unmarked) [Example 135]	2250
CN1[C@@H]2CC[C@H]1CC(Oc1ccc(-n3cnc4cc(C5=CCOCC5)sc4c3=O)cc1)C2 (some centres unmarked) [Example 142]	2590
CN1[C@@H]2CC[C@H]1C[C@@H](Oc1ccc(-n3cnc4cc(CC(O)C5CCC5)sc4c3=O)cc1)C2 (some centres unmarked) [Example 166]	1090
CN1[C@@H]2CC[C@H]1C[C@@H](Oc1ccc(-n3cnc4cc(CC(O)c5ccco5)sc4c3=O)cc1)C2 (some centres unmarked) [Example 169]	290
CN1[C@@H]2CC[C@H]1C[C@@H](Oc1ccc(-n3cnc4cc(CCc5ccco5)sc4c3=O)cc1)C2 [Example 171, 6-(2-Furan-2-ylethyl)-3-[4-((1S,3R,5R)-8-methyl-8-azabicyclo[3.2.1]oct-3-yloxy)phenyl]-3H-thieno[3,2-d]pyrimidin-4-one]	210
CCC(O)C#Cc1cc2ncn(-c3ccc(OC4C[C@H]5CC[C@@H](C4)N5C)c(CCC(O)CC)c3)c(=O)c2s1 (some centres unmarked) [Example 178]	1270
CCc1cc(-n2cnc3cc(C#CC(O)CC)sc3c2=O)ccc1O[C@H]1C[C@H]2CC[C@@H](C1)N2C (some centres unmarked) [Example 181]	210
CCC(O)CCc1cc2ncn(-c3ccc(OC4C[C@H]5CC[C@@H](C4)N5C)c(CCCO)c3)c(=O)c2s1 (some centres unmarked) [Example 190]	1350
